Laboratory results published in paper PMC9962402, “Fast and Simple Liquid Chromatography-Isotope Dilution Tandem Mass Spectrometry Method for Therapeutic Drug Monitoring of Dalbavancin in Long-Term Treatment of Subacute and/or Chronic Infections” (Pharmaceutics, 2023).

What was measured:
[1] = human; cited from earlier work
[2] = Freeze-thaw stability of DBV in plasma samples
Protocol: Stability of DBV was assessed by comparing the nominal concentrations of LQC, MQC and HQC with those observed under two different conditions: • sample extracts kept on board at 10 °C for 24 h and frozen at −80 °C for 24 h; • plasma samples analyzed after three complete freeze and thaw cycles (from −80 °C to 25 °C).
Stability in the above operating conditions was deemed suitable if DBV concentrations were within ±15% of the nominal value.

[3] = human, in vivo
Protocol: Plasma samples (3 μL) were added to 47 μL of ultrapure water to achieve a dilution factor of 17 and then mixed with 150 μL of the IS-methanol solution (1 mg/L DBV-d6). The mixture was vortexed for 15 s and then centrifuged at room temperature at 13,000 rpm for 5 min. Subsequently, 50 µL of the clear supernatant was transferred to an autosampler vial, and a volume of 3 µL was injected into the LC-MS/MS system (Figure 2).
The presented ITD LC-MS/MS method was tested for measuring DBV concentrations in patients receiving DBV for the treatment of long-term subacute or chronic documented Gram-positive infections (namely osteoarticular infections, endocarditis, and endovascular prosthetic infections). In our study, DBV treatment was started according to the internal protocol consisting of two 1500 mg doses one week apart. Requirement for additional doses was assessed by the treating physician after at least four weeks according to the underlying clinical conditions of each patient. […] The number of samples assessed was 520. Samples for Dalbavancin TDM were usually collected at predefined timeframes between 21 and 35 days after first administration. […] Blood samples respected the cold chain delivery and were processed either immediately after delivery or after freezing at −80 °C until analysis, depending on case-by-case.

[4] = Stability of DBV in sample extracts (autosampler, freezer); assay type: physicochemical; details: for Avg Accuracy (Bias%): vs nominal concentration, LC-MS/MS

## CN[C@H]1C(=O)N[C@@H]2Cc3ccc(cc3)Oc3cc4cc(c3O[C@@H]3O[C@H](C(=O)O)[C@@H](O)[C@H](O)[C@H]3NC(=O)CCCCCCCCC(C)C)Oc3ccc(cc3Cl)[C@@H](O)[C@@H]3NC(=O)[C@H](NC(=O)[C@@H]4NC(=O)[C@@H](NC2=O)c2cc(cc(O)c2Cl)Oc2cc1ccc2O)c1ccc(O)c(c1)-c1c(O[C@H]2O[C@H](CO)[C@@H](O)[C@H](O)[C@@H]2O)cc(O)cc1[C@@H](C(=O)NCCCN(C)C)NC3=O [DBV, Dalbavancin]
[1]
  plasma protein binding: very high
[2]
  change of DBV concentrations after freeze and thaw cycles: decreased
[2]; human plasma samples, 1 freeze-thaw cycle (−80 °C to 25 °C), Low QC 7 mg/L, vs nominal, LC-MS/MS
  Avg Accuracy (Bias%): 14.8%
[3]
  DBV concentration, first quartile: 11 mg/L
  DBV concentration, maximum: 77.0 mg/L
  DBV concentration, minimum: 2.0 mg/L
  DBV concentration, third quartile: 31.8 mg/L
[3]; 1500 mg
  DBV concentration, median: 18 mg/L
[4]; extract (MeOH:H2O protein precipitation of plasma) kept in autosampler at 10 °C, post 24 h, Low QC 7 mg/L, acceptance ±15%
  Avg Accuracy (Bias%): 22.1%
[4]; extract in freezer (−80 °C) post 24 h, High QC 280 mg/L
  Avg Accuracy (Bias%): 12.3%
[4]; extract in freezer (−80 °C) post 24 h, Low QC 7 mg/L
  Avg Accuracy (Bias%): 16.8%
[4]; extract in freezer (−80 °C) post 24 h, Medium QC 70 mg/L
  Avg Accuracy (Bias%): 6.7%
[4]; extract kept in autosampler at 10 °C, post 24 h, High QC 280 mg/L
  Avg Accuracy (Bias%): 14.8%
[4]; extract kept in autosampler at 10 °C, post 24 h, Medium QC 70 mg/L
  Avg Accuracy (Bias%): 9.4%
[4]; extracts kept at 10 °C
  time for which autosampler extracts were stable: at least 24 h
